Data reported in patent US9211310B2, “Use of a Chinese medicine composition in preparing medicaments for treating secondary prevention of myocardial infarction” (TASLY PHARMACEUTICAL GROUP CO., LTD, priority 2010, dated 2015).

System: patients after acute myocardial infarction
Experiment: Life quality, Seattle Angina Questionnaire (SAQ), same clinical trial
Assay type: in vivo, human
From the text: 3508 patients who were in accordance with the diagnostic standards of AMI for 28 days to 2 years and differentiated as Qi deficiency and blood stagnation syndrome by TCM were studied. 0.5 g Chinese medicine composition prepared by the method of EXAMPLE 1 (Coded as QSYQ) was administrated half an hour after meal, 3 times per day.
There were 19 questions in the Seattle angina questionnaire (SAQ), including 5 parts: physical limitation (PL), anginal stability (AS), anginal frequency (AF), treatment satisfaction (TS) and disease perception (DP). After being given necessary explanation by doctors, the questions were answered independently by patients.
They included the overall survival time, angina pectoris score, TCM symptom score and life quality score, where angina pectoris score, TCM symptom score and life quality score were evaluated at randomization, in 1st, 3rd, 6th, 9th, 12th month after treatment and 18th month after follow-up.
All evaluation results of SAQ were described during the period of observation, and Wilcoxon rank sum test was used for inter-group comparison.
The evaluation results in the SAQ were depicted in different observations, and inter-group comparison was tested by Wilcoxon Rank-sum test.

SMILES: CC(=O)Oc1ccccc1C(=O)O [Control group, aspirine]
- SAQ 3rd question: ≧4 times per day, cases (3 months after treatment, PP): 6
- SAQ Question 1-3: Mildly limited, number of patients (3 months after treatment, PP): 81
- SAQ Question 1-3: Mildly limited, percent of patients (3 months after treatment, PP): (5.51%)
- SAQ Question 1-3: Moderately limited, number of patients (3 months after treatment, PP): 16
- SAQ Question 1-3: Moderately limited, percent of patients (3 months after treatment, PP): (1.09%)
- SAQ Question 1-3: Not limited, number of patients (3 months after treatment, PP): 1103
- SAQ Question 1-3: Not limited, percent of patients (3 months after treatment, PP): (75.03%)
- SAQ Question 1-3: Other reason, number of patients (3 months after treatment, PP): 8
- SAQ Question 1-3: Other reason, percent of patients (3 months after treatment, PP): (0.54%)
- SAQ Question 1-3: Severely limited, number of patients (3 months after treatment, PP): 5
- SAQ Question 1-3: Severely limited, percent of patients (3 months after treatment, PP): (0.34%)
- SAQ Question 1-3: Slightly limited, number of patients (3 months after treatment, PP): 257
- SAQ Question 1-3: Slightly limited, percent of patients (3 months after treatment, PP): (17.48%)
- SAQ Question 1-4: Mildly limited, number of patients (3 months after treatment, PP): 278
- SAQ Question 1-4: Mildly limited, percent of patients (3 months after treatment, PP): (18.95%)
- SAQ Question 1-4: Moderately limited, number of patients (3 months after treatment, PP): 105
- SAQ Question 1-4: Moderately limited, percent of patients (3 months after treatment, PP): (7.16%)
- SAQ Question 1-4: Not limited, number of patients (3 months after treatment, PP): 559
- SAQ Question 1-4: Not limited, percent of patients (3 months after treatment, PP): (38.10%)
- SAQ Question 1-4: Other limited, number of patients (3 months after treatment, PP): 11
- SAQ Question 1-4: Other limited, percent of patients (3 months after treatment, PP): (0.75%)
- SAQ Question 1-4: Severely limited, number of patients (3 months after treatment, PP): 22
- SAQ Question 1-4: Severely limited, percent of patients (3 months after treatment, PP): (1.50%)
- SAQ Question 1-4: Slightly limited, number of patients (3 months after treatment, PP): 492
- SAQ Question 1-4: Slightly limited, percent of patients (3 months after treatment, PP): (33.54%)
- SAQ Question 1-5: Mildly limited, number of patients (3 months after treatment, PP): 268
- SAQ Question 1-5: Mildly limited, percent of patients (3 months after treatment, PP): (18.27%)
- SAQ Question 1-5: Moderately limited, number of patients (3 months after treatment, PP): 137
- SAQ Question 1-5: Moderately limited, percent of patients (3 months after treatment, PP): (9.34%)
- SAQ Question 1-5: Not limited, number of patients (3 months after treatment, PP): 594
- SAQ Question 1-5: Not limited, percent of patients (3 months after treatment, PP): (40.49%)
- SAQ Question 1-5: Other reasons, number of patients (3 months after treatment, PP): 11
- SAQ Question 1-5: Other reasons, percent of patients (3 months after treatment, PP): (0.75%)
- SAQ Question 1-5: Severely limited, number of patients (3 months after treatment, PP): 16
- SAQ Question 1-5: Severely limited, percent of patients (3 months after treatment, PP): (1.09%)
- SAQ Question 1-5: Slightly limited, number of patients (3 months after treatment, PP): 441
- SAQ Question 1-5: Slightly limited, percent of patients (3 months after treatment, PP): (30.06%)
- SAQ Question 1-9: Mildly limited, % of cases (3 months after treatment, PP): (18.45%)
- SAQ Question 1-9: Mildly limited, cases (3 months after treatment, PP): 264
- SAQ Question 1-9: Moderately limited, % of cases (3 months after treatment, PP): (20.48%)
- SAQ Question 1-9: Moderately limited, cases (3 months after treatment, PP): 293
- SAQ Question 1-9: Not limited, % of cases (3 months after treatment, PP): (3.70%)
- SAQ Question 1-9: Not limited, cases (3 months after treatment, PP): 53
- SAQ Question 1-9: Other reaons, % of cases (3 months after treatment, PP): (6.08%)
- SAQ Question 1-9: Other reaons, cases (3 months after treatment, PP): 87
- SAQ Question 1-9: Severely limited, % of cases (3 months after treatment, PP): (39.41%)
- SAQ Question 1-9: Severely limited, cases (3 months after treatment, PP): 564
- SAQ Question 1-9: Slightly limited, % of cases (3 months after treatment, PP): (11.88%)
- SAQ Question 1-9: Slightly limited, cases (3 months after treatment, PP): 170
- SAQ 2nd question: 6, % of cases (6 months after treatment, FAS): (0.00%)
- SAQ 2nd question: 6, cases (6 months after treatment, FAS): 0
- SAQ 2nd question: Clearly increased, % of cases (6 months after treatment, FAS): (0.98%)
- SAQ 2nd question: Clearly increased, cases (6 months after treatment, FAS): 17
- SAQ 2nd question: Clearly reduced, % of cases (6 months after treatment, FAS): (22.98%)
- SAQ 2nd question: Clearly reduced, cases (6 months after treatment, FAS): 400
- SAQ 2nd question: Same, % of cases (6 months after treatment, FAS): (37.33%)
- SAQ 2nd question: Same, cases (6 months after treatment, FAS): 650
- SAQ 2nd question: Slightly increased, % of cases (6 months after treatment, FAS): (3.68%)
- SAQ 2nd question: Slightly increased, cases (6 months after treatment, FAS): 64
- SAQ 2nd question: Slightly reduced, % of cases (6 months after treatment, FAS): (35.04%)
- SAQ 2nd question: Slightly reduced, cases (6 months after treatment, FAS): 610
- SAQ 3rd question: 1-2 times per week, % of cases (6 months after treatment, FAS): (35.04%)
- SAQ 3rd question: 1-2 times per week, cases (6 months after treatment, FAS): 610
- SAQ 3rd question: 1-3 times per day, % of cases (6 months after treatment, FAS): (3.68%)
- SAQ 3rd question: 1-3 times per day, cases (6 months after treatment, FAS): 64
- SAQ 3rd question: <1 time per week, % of cases (6 months after treatment, FAS): (22.98%)
- SAQ 3rd question: <1 time per week, cases (6 months after treatment, FAS): 400
- SAQ 3rd question: No onset, % of cases (6 months after treatment, FAS): (0.00%)
- SAQ 3rd question: No onset, cases (6 months after treatment, FAS): 0
- SAQ 3rd question: ≧3 times per week, % of cases (6 months after treatment, FAS): (37.33%)
- SAQ 3rd question: ≧3 times per week, cases (6 months after treatment, FAS): 650
- SAQ 3rd question: ≧4 times per day, % of cases (6 months after treatment, FAS): (0.98%)
- SAQ 3rd question: ≧4 times per day, cases (6 months after treatment, FAS): 17
- SAQ Question 1-3: Mildly limited, number of patients (6 months after treatment, FAS): 86
- SAQ Question 1-3: Mildly limited, percent of patients (6 months after treatment, FAS): (4.93%)
- SAQ Question 1-3: Moderately limited, number of patients (6 months after treatment, FAS): 20
- SAQ Question 1-3: Moderately limited, percent of patients (6 months after treatment, FAS): (1.15%)
